Experimental data published in patent US20050281891A1, “Testosterone stimulant” (Ecobio, Inc., priority 2004, published 2005).

Test system: systemic testosterone levels
Test: Testosterone stimulation in rats: iron, chitosan and iron chitosan chelate vs placebo
Type: in vivo, Sprague Dawley rats
Conditions: 8-week old rats, oral 200 μL twice a day for 7 days; 0.12 wt % iron lactate, 1 wt % chitosan or 1 wt % iron chitosan chelate
Procedure: The effects of an iron chitosan chelate, chitosan, and iron on systemic testosterone levels in test groups of 8-week old Sprague Dawley rats is observed and compared to a control group. Each of the groups includes 8 rats. The rats of each group are orally administered a liquid composition twice a day, where group 1 receives a carrier composition in the form of a placebo, group 2 receives the carrier enhanced with 200 μL of 0.12 wt % iron lactate, group 3 receives the carrier enhanced with 200 μL of 1 wt % chitosan having a weight average molecular weight of 19,500 Mw, and group 4 receives the carrier enhanced with 200 μL of 1 wt % iron chitosan chelate (chitosan weight average molecular weight 19,500 Mw). The effects of the iron, chitosan, and iron chitosan chelate in systemic testosterone levels are compared to the systemic testosterone levels of the rats administered with the carrier placebo alone. After 7 days of dosing the 4 rat groups twice per day, the impact of the test groups compared to the control group on the rats testosterone levels is recorded, and is set forth in Table 1.

CC(O)C(=O)[O-].CC(O)C(=O)[O-].[Fe+2] (centres unmarked) [Iron, iron lactate]
% Increase from Placebo: ˜0% | Testosterone Level: 358.1 ± 23.6 (pg/100 μL)
